# Results reported in ChEMBL document CHEMBL2062415, “Steroids from Commiphora mukul display antiproliferative effect against human prostate cancer PC3 cells via induction of apoptosis” (Bioorg Med Chem Lett, 2012).
# Calls of active or inactive are those of the source. The calls are words filed in the database; no cut-off is given here.
# How the values were obtained:
# MCF7 [1] = test: Induction of apoptosis in human MCF7 cells assessed as accumulation at S phase at 10 uM after 48 hrs by propidium iodide staining-based flow cytometric analysis (reference value: 22.99%); type: functional
# PC-3 [2] = test: Cell cycle arrest in human PC3 cells assessed as accumulation at S phase at 10 uM after 48 hrs by propidium iodide staining-based flow cytometric analysis relative to control; type: functional
# DU-145 [3] = test: Induction of apoptosis in human DU145 cells assessed as early apoptotic cells at 10 uM after 48 hrs by annexinV/propidium iodide staining-based FITC analysis (reference value: 2.34%); type: functional
# K562 [4] = test: Cytotoxicity against human K562 cells assessed as cell viability at 10 uM after 24 hrs by MTT assay; type: functional; conditions: K562, 24 h, read-out: Activity
# MCF7 [5] = test: Induction of apoptosis in human MCF7 cells assessed as late apoptotic cells at 5 uM after 48 hrs by annexinV/propidium iodide staining-based FITC analysis (reference value: 3.57%); type: functional
# K562 [6] = test: Induction of apoptosis in human K562 cells assessed as early apoptotic cells at 5 uM after 48 hrs by annexinV/propidium iodide staining-based FITC analysis (reference value: 2.08%); type: functional
# MCF7 [7] = test: Induction of apoptosis in human MCF7 cells assessed as accumulation at G2/M phase at 5 uM after 48 hrs by propidium iodide staining-based flow cytometric analysis (reference value: 9.55%); type: functional
# PC-3 [8] = test: Cell cycle arrest in human PC3 cells assessed as accumulation at G0/G1 phase at 20 uM after 48 hrs by propidium iodide staining-based flow cytometric analysis relative to control; type: functional
# DU-145 [9] = test: Induction of apoptosis in human DU145 cells assessed as necrotic cells at 10 uM after 48 hrs by annexinV/propidium iodide staining-based FITC analysis (reference value: 0.35%); type: functional
# DU-145 [10] = test: Induction of apoptosis in human DU145cells assessed as late apoptotic cells at 20 uM after 48 hrs by annexinV/propidium iodide staining-based FITC analysis (reference value: 2.78%); type: functional
# PC-3 [11] = test: Cell cycle arrest in human PC3 cells assessed as accumulation at G2/M phase at 10 uM after 48 hrs by propidium iodide staining-based flow cytometric analysis relative to control; type: functional
# MCF7 [12] = test: Induction of apoptosis in human MCF7 cells assessed as accumulation at G0/G1 phase at 5 uM after 48 hrs by propidium iodide staining-based flow cytometric analysis (reference value: 67.46%); type: functional
# MCF7 [13] = test: Induction of apoptosis in human MCF7 cells assessed as accumulation at S phase at 5 uM after 48 hrs by propidium iodide staining-based flow cytometric analysis (reference value: 22.99%); type: functional
# K562 [14] = test: Induction of apoptosis in human K562 cells assessed as accumulation at S phase at 5 uM after 48 hrs by propidium iodide staining-based flow cytometric analysis (reference value: 45.67%); type: functional
# PC-3 [15] = test: Induction of apoptosis in human PC3 cells assessed as late apoptotic cells at 5 uM after 48 hrs by annexinV/propidium iodide staining-based FITC analysis relative to control; type: functional
# PC-3 [16] = test: Induction of apoptosis in human PC3 cells assessed as necrotic cells at 5 uM after 48 hrs by annexinV/propidium iodide staining-based FITC analysis relative to control; type: functional
# DU-145 [17] = test: Induction of apoptosis in human DU145 cells assessed as accumulation at S phase at 20 uM after 48 hrs by propidium iodide staining-based flow cytometric analysis (reference value: 11.48%); type: functional
# DU-145 [18] = test: Induction of apoptosis in human DU145 cells assessed as accumulation at G2/M phase at 40 uM after 48 hrs by propidium iodide staining-based flow cytometric analysis (reference value: 16.14%); type: functional
# K562 [19] = test: Induction of apoptosis in human K562 cells assessed as necrotic cells at 5 uM after 48 hrs by annexinV/propidium iodide staining-based FITC analysis (reference value: 1.19%); type: functional
# DU-145 [20] = test: Induction of apoptosis in human DU145 cells assessed as accumulation at G2/M phase at 20 uM after 48 hrs by propidium iodide staining-based flow cytometric analysis (reference value: 16.14%); type: functional
# PC-3 [21] = test: Cytotoxicity against human PC3 cells assessed as cell viability at 10 uM after 24 hrs by MTT assay; type: functional; conditions: PC-3, 24 h, read-out: Activity
# MCF7 [22] = test: Induction of apoptosis in human MCF7 cells assessed as early apoptotic cells at 5 uM after 48 hrs by annexinV/propidium iodide staining-based FITC analysis (reference value: 5.48%); type: functional
# MCF7 [23] = test: Induction of apoptosis in human MCF7 cells assessed as early apoptotic cells at 10 uM after 48 hrs by annexinV/propidium iodide staining-based FITC analysis (reference value: 5.48%); type: functional
# MCF7 [24] = test: Induction of apoptosis in human MCF7 cells assessed as late apoptotic cells at 10 uM after 48 hrs by annexinV/propidium iodide staining-based FITC analysis (reference value: 3.57%); type: functional
# DU-145 [25] = test: Induction of apoptosis in human DU145 cells assessed as necrotic cells at 40 uM after 48 hrs by annexinV/propidium iodide staining-based FITC analysis (reference value: 0.35%); type: functional
# MCF7 [26] = test: Induction of apoptosis in human MCF7 cells assessed as accumulation at G2/M phase at 20 uM after 48 hrs by propidium iodide staining-based flow cytometric analysis (reference value: 9.55%); type: functional
# K562 [27] = test: Induction of apoptosis in human K562 cells assessed as early apoptotic cells at 1 uM after 48 hrs by annexinV/propidium iodide staining-based FITC analysis (reference value: 2.08%); type: functional
# DU-145 [28] = test: Induction of apoptosis in human DU145 cells assessed as accumulation at G0/G1 phase at 20 uM after 48 hrs by propidium iodide staining-based flow cytometric analysis (reference value: 72.11%); type: functional
# MCF7 [29] = test: Induction of apoptosis in human MCF7 cells assessed as early apoptotic cells at 20 uM after 48 hrs by annexinV/propidium iodide staining-based FITC analysis (reference value: 5.48%); type: functional
# PC-3 [30] = test: Cytotoxicity against human PC3 cells after 24 hrs by MTT assay; type: functional, cell-based; conditions: PC-3, 24 h
# PC-3 [31] = test: Cell cycle arrest in human PC3 cells assessed as accumulation at S phase at 20 uM after 48 hrs by propidium iodide staining-based flow cytometric analysis relative to control; type: functional
# PC-3 [32] = test: Inhibition of cyclin A protein expression in human PC3 cells at 20 uM after 48 hrs by Western blot analysis; type: functional, cell-based
# DU-145 [33] = test: Induction of apoptosis in human DU145 cells assessed as accumulation at S phase at 40 uM after 48 hrs by propidium iodide staining-based flow cytometric analysis (reference value: 11.48%); type: functional
# DU-145 [34] = test: Cytotoxicity against human DU145 cells after 24 hrs by MTT assay; type: functional, cell-based; conditions: DU-145, 24 h
# PC-3 [35] = test: Cell cycle arrest in human PC3 cells assessed as accumulation at G2/M phase at 20 uM after 48 hrs by propidium iodide staining-based flow cytometric analysis relative to control; type: functional
# K562 [36] = test: Induction of apoptosis in human K562 cells assessed as accumulation at G0/G1 phase at 1 uM after 48 hrs by propidium iodide staining-based flow cytometric analysis (reference value: 38.61%); type: functional
# PC-3 [37] = test: Cell cycle arrest in human PC3 cells assessed as accumulation at G2/M phase after 48 hrs by propidium iodide staining-based flow cytometric analysis; type: functional
smiles,measurement,setting,value
CC[C@H](/C=C/[C@@H](C)[C@H]1CC[C@H]2[C@H]3[C@H]([C@H](O)C[C@]12C)[C@@]1(C)CC[C@H](O)CC1=C[C@H]3O)C(C)C,Activity,MCF7 [1],18.92%
same,Activity,PC-3 [2],23.27%
same,Activity,DU-145 [3],4.02%
same,viability at 10 µM,K562 [4],32%
same,Activity,MCF7 [5],3.47%
same,Activity,K562 [6],3.77%
same,Activity,MCF7 [7],8.56%
same,Activity,PC-3 [8],55.82%
same,Activity,DU-145 [9],0.28%
same,Activity,DU-145 [10],5.73%
same,Activity,PC-3 [11],24.03%
same,Activity,MCF7 [12],72.36%
same,Activity,MCF7 [13],19.09%
same,Activity,K562 [14],45.5%
same,Activity,PC-3 [15],27.43%
same,Activity,PC-3 [16],1.87%
same,Activity,DU-145 [17],11.38%
same,Activity,DU-145 [18],35.85%
same,Activity,K562 [19],1.59%
same,Activity,DU-145 [20],20.74%
same,viability at 10 µM,PC-3 [21],40%
same,Activity,MCF7 [22],6.72%
same,Activity,MCF7 [23],6.81%
same,Activity,MCF7 [24],4.42%
same,Activity,DU-145 [25],8.01%
same,Activity,MCF7 [26],24.7%
same,Activity,K562 [27],1.99%
same,Activity,DU-145 [28],67.88%
same,Activity,MCF7 [29],9.91%
same,IC50,PC-3 [30],10.9 µM
same,Activity,PC-3 [31],14.34%
same,inhibition,PC-3 [32],Active
same,Activity,DU-145 [33],17.68%
same,IC50,DU-145 [34],16.6 µM
same,Activity,PC-3 [35],29.84%
same,Activity,K562 [36],41.16%
same,Activity,PC-3 [37],Dose-dependent effect
